Data published in ChEMBL document CHEMBL3885881, “DrugMatrix”.

Organism: Rattus norvegicus
Assay: DrugMatrix - Regimen: Daily Repeat
Type: toxicity, organism-based, Sprague-Dawley
Parameters: regimen Daily Repeat, gender Male, age 6-8 weeks
Conditions: in vivo, sc, route subcutaneous, […]; for ABSOLUTE BASOPHIL / ABSOLUTE EOSINOPHIL / ABSOLUTE LYMPHOCYTE / ABSOLUTE MONOCYTE / ABSOLUTE SEGMENTED NEUTROPHIL / BASOPHIL / EOSINOPHIL / ERYTHROCYTE COUNT / HEMATOCRIT / LEUKOCYTE COUNT / MEAN CORPUSCULAR HEMOGLOBIN / MEAN CORPUSCULAR HEMOGLOBIN CONCENTRATION / MEAN CORPUSCULAR VOLUME / MONOCYTE / NEUTROPHIL / NUCLEATED RED BLOOD CELLS / PLATELET COUNT: tissue Blood; for ALANINE AMINOTRANSFERASE / ALBUMIN / ALKALINE PHOSPHATASE / ASPARTATE AMINOTRANSFERASE / BLOOD UREA NITROGEN / CHLORIDE / CHOLESTEROL / CREATINE PHOSPHOKINASE / CREATININE / GLUCOSE / LACTATE DEHYDROGENASE / LIPASE / PHOSPHORUS / POTASSIUM / TOTAL BILIRUBIN / URIC ACID: tissue Plasma
[1] = 0 mg/kg, 72 h, dose level Control, time 3 day
[2] = 0 mg/kg, 120 h, dose level Control, time 5 day
[3] = 79 mg/kg, 72 h, dose level High, time 3 day

C[C@H]1C[C@H]2[C@@H]3CCC4=CC(=O)C=C[C@]4(C)[C@@]3(F)[C@@H](O)C[C@]2(C)[C@@]1(O)C(=O)CO [BETAMETHASONE]
ABSOLUTE BASOPHIL [1]: 0 CELLS/uL
ABSOLUTE EOSINOPHIL [1]: 0 CELLS/uL
ABSOLUTE LYMPHOCYTE [1]: 10887 CELLS/uL
ABSOLUTE MONOCYTE [1]: 56 CELLS/uL
ABSOLUTE SEGMENTED NEUTROPHIL [1]: 1057 CELLS/uL
BASOPHIL [1]: 0%
EOSINOPHIL [1]: 0%
ERYTHROCYTE COUNT [1]: 5.31 x10E6/uL
HEMATOCRIT [1]: 33.78%
LEUKOCYTE COUNT [1]: 12 x10E3/uL
MEAN CORPUSCULAR HEMOGLOBIN [1]: 25.25 pg
MEAN CORPUSCULAR HEMOGLOBIN CONCENTRATION [1]: 39.65 G/DL
MEAN CORPUSCULAR VOLUME [1]: 63.65 fL
MONOCYTE [1]: 0.5%
NEUTROPHIL [1]: 8.33%
NUCLEATED RED BLOOD CELLS [1]: 0 /100WBC
PLATELET COUNT [1]: 1142 x10E3/uL
ALANINE AMINOTRANSFERASE [1]: 57.17 u/L
ALBUMIN [1]: 4.28 G/DL
ALKALINE PHOSPHATASE [1]: 425.83 u/L
ASPARTATE AMINOTRANSFERASE [1]: 93.83 u/L
BLOOD UREA NITROGEN [1]: 14.17 mg/dL
CHLORIDE [1]: 100 MEQ/L
CHOLESTEROL [1]: 70.33 mg/dL
CREATINE PHOSPHOKINASE [1]: 438.67 u/L
CREATININE [1]: 0.19 mg/dL
GLUCOSE [1]: 138.5 mg/dL
LACTATE DEHYDROGENASE [1]: 190.17 u/L
LIPASE [1]: 9.83 u/L
PHOSPHORUS [1]: 11.05 mg/dL
POTASSIUM [1]: 6.59 MEQ/L
TOTAL BILIRUBIN [1]: 0.22 mg/dL
URIC ACID [1]: 1.3 mg/dL
ABSOLUTE BASOPHIL [2]: 0 CELLS/uL
ABSOLUTE EOSINOPHIL [2]: 91.17 CELLS/uL
ABSOLUTE LYMPHOCYTE [2]: 11847.67 CELLS/uL
ABSOLUTE MONOCYTE [2]: 172.83 CELLS/uL
ABSOLUTE SEGMENTED NEUTROPHIL [2]: 1105 CELLS/uL
BASOPHIL [2]: 0%
EOSINOPHIL [2]: 0.67%
ERYTHROCYTE COUNT [2]: 5.35 x10E6/uL
HEMATOCRIT [2]: 33.65%
LEUKOCYTE COUNT [2]: 13.22 x10E3/uL
MEAN CORPUSCULAR HEMOGLOBIN [2]: 25.12 pg
MEAN CORPUSCULAR HEMOGLOBIN CONCENTRATION [2]: 39.9 G/DL
MEAN CORPUSCULAR VOLUME [2]: 63 fL
MONOCYTE [2]: 1.33%
NEUTROPHIL [2]: 8.17%
NUCLEATED RED BLOOD CELLS [2]: 0 /100WBC
PLATELET COUNT [2]: 1347.83 x10E3/uL
ALANINE AMINOTRANSFERASE [2]: 50 u/L
ALBUMIN [2]: 4.1 G/DL
ALKALINE PHOSPHATASE [2]: 329.17 u/L
ASPARTATE AMINOTRANSFERASE [2]: 77.17 u/L
BLOOD UREA NITROGEN [2]: 16.83 mg/dL
CHLORIDE [2]: 99.83 MEQ/L
CHOLESTEROL [2]: 75.67 mg/dL
CREATINE PHOSPHOKINASE [2]: 295.83 u/L
CREATININE [2]: 0.18 mg/dL
GLUCOSE [2]: 156.33 mg/dL
LACTATE DEHYDROGENASE [2]: 166.83 u/L
LIPASE [2]: 9.83 u/L
PHOSPHORUS [2]: 12.18 mg/dL
POTASSIUM [2]: 6.69 MEQ/L
TOTAL BILIRUBIN [2]: 0.22 mg/dL
URIC ACID [2]: 1.6 mg/dL
ABSOLUTE BASOPHIL [3]: 0 CELLS/uL
ABSOLUTE EOSINOPHIL [3]: 18 CELLS/uL
ABSOLUTE LYMPHOCYTE [3]: 1334 CELLS/uL
ABSOLUTE MONOCYTE [3]: 44 CELLS/uL
ABSOLUTE SEGMENTED NEUTROPHIL [3]: 3004 CELLS/uL
BASOPHIL [3]: 0%
EOSINOPHIL [3]: 0.33%
ERYTHROCYTE COUNT [3]: 5.69 x10E6/uL
HEMATOCRIT [3]: 36.67%
LEUKOCYTE COUNT [3]: 4.4 x10E3/uL
MEAN CORPUSCULAR HEMOGLOBIN [3]: 25.27 pg
MEAN CORPUSCULAR HEMOGLOBIN CONCENTRATION [3]: 39.2 G/DL
MEAN CORPUSCULAR VOLUME [3]: 64.47 fL
MONOCYTE [3]: 1%
NEUTROPHIL [3]: 69%
NUCLEATED RED BLOOD CELLS [3]: 0 /100WBC
PLATELET COUNT [3]: 1406 x10E3/uL
ALANINE AMINOTRANSFERASE [3]: 146.33 u/L
ALBUMIN [3]: 5.37 G/DL
ALKALINE PHOSPHATASE [3]: 302 u/L
ASPARTATE AMINOTRANSFERASE [3]: 178 u/L
BLOOD UREA NITROGEN [3]: 25 mg/dL
CHLORIDE [3]: 96.67 MEQ/L
CHOLESTEROL [3]: 124.33 mg/dL
CREATINE PHOSPHOKINASE [3]: 219.33 u/L
CREATININE [3]: 0.27 mg/dL
GLUCOSE [3]: 443 mg/dL
LACTATE DEHYDROGENASE [3]: 492.67 u/L
LIPASE [3]: 12.67 u/L
PHOSPHORUS [3]: 11.8 mg/dL
POTASSIUM [3]: 6.32 MEQ/L
TOTAL BILIRUBIN [3]: 0.2 mg/dL
URIC ACID [3]: 1.43 mg/dL
